Test results: US8877744B2, “1,4-Oxazepines as BACE1 and/or BACE2 inhibitors” (Hoffmann-La Roche Inc., priority 2011, dated 2014)
Counter-ions that a name gives are not always drawn.

Molecular target: T1, BACE1 (Homo sapiens, UniProt P56817)
T1 construct: endogenous in cells; host or cells: HEK293 stably transfected with human APP695 wt
Assay: Cellular Aβ-lowering assay a): HEK293 cells expressing human APP695, Aβ40 ELISA
Type: cell-based
Details: Aβ40 in supernatant by ELISA, 18-20 hrs incubation
Method: Cellular Aβ-Lowering Assay:
a) Human HEK293 cells which are stably transfected with a vector expressing a cDNA of the human APP wt gene (APP695) were used to assess the potency of the compounds in a cellular assay. The cells were seeded in 96-well microtiter plates in cell culture medium (Iscove, plus 10% (v/v) fetal bovine serum, glutamine, penicillin/streptomycin) to about 80% confluence and the compounds were added at a 10× concentration in 1/10 volume of medium without FCS containing 8% DMSO (final concentration of DMSO was kept at 0.8% v/v). After 18-20 hrs incubation at 37° C. and 5% CO2 in a humidified incubator the culture supernatant was harvested for the determination of Aβ40 concentrations. 96 well ELISA plates (e.g., Nunc MaxiSorb) were coated with monoclonal antibody which specifically recognize the C-terminal end of Aβ40 (Brockhaus et al., NeuroReport 9, 1481-1486; 1998). After blocking of non-specific binding sites with e.g. 1% BSA and washing, the culture supernatants were added in suitable dilutions together with a horseradish peroxidase-coupled Aβ detection antibody (e.g., antibody 4G8, Senetek, Maryland Heights, Mo.) and incubated for 5 to 7 hrs. Subsequently the wells of the microtiter plate were washed extensively with Tris-buffered saline containing 0.05% Tween 20 and the assay was developed with tetramethylbenzidine/H2O2 in citric acid buffer. After stopping the reaction with one volume 1 N H2SO4 the reaction was measured in an ELISA reader at 450 nm wavelength. The concentrations of Aβ in the culture supernatants were calculated from a standard curve obtained with known amounts of pure Aβ peptide.

T1 sequence (P56817 46-501): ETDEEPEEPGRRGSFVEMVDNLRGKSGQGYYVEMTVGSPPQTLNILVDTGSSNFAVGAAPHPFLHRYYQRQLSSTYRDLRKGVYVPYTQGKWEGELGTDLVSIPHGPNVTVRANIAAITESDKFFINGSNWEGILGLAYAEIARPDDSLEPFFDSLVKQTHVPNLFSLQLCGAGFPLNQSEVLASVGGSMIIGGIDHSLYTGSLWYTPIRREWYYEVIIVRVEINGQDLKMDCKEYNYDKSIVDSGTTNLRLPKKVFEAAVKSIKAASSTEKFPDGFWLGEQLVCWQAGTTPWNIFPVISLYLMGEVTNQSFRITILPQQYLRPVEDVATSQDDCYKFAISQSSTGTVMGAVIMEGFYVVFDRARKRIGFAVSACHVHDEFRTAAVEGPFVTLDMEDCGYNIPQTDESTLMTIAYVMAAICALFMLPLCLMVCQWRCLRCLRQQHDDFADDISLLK

For `C[C@]1(c2cc(-c3cncnc3)ccc2F)N=C(N)COCC1(F)F` [Example 1, (R)-6,6-Difluoro-5-(2-fluoro-5-pyrimidin-5-yl-phenyl)-5-methyl-2,5,6,7-tetrahydro-[1,4]oxazepin-3-ylamine formate], which IC50 is on record?
The IC50 was 0.253 µM.

For `CC1(C)OCC(N)=N[C@](C)(c2cc(-c3cncnc3)ccc2F)C1(F)F` [Example 2, (R)-6,6-Difluoro-5-(2-fluoro-5-pyrimidin-5-yl-phenyl)-5,7,7-trimethyl-2,5,6,7-tetrahydro-[1,4]oxazepin-3-ylamine], which IC50 is on record?
Its IC50 is 0.056 µM.

`CC1(C)OCC(N)=N[C@](C)(c2cc(-c3cc(F)cc(F)c3)ccc2F)C1(F)F` [Example 3, (R)-6,6-Difluoro-5,7,7-trimethyl-5-(4,3′,5′-trifluoro-biphenyl-3-yl)-2,5,6,7-tetrahydro-[1,4]oxazepin-3-ylamine] was tested. Which IC50 did it give?
Its IC50 is 0.18 µM.

`CC1(C)OCC(N)=N[C@](C)(c2cc(-c3cncc(Cl)c3)ccc2F)C1(F)F` [Example 4, (R)-5-[5-(5-Chloro-pyridin-3-yl)-2-fluoro-phenyl]-6,6-difluoro-5,7,7-trimethyl-2,5,6,7-tetrahydro-[1,4]oxazepin-3-ylamine] was tested. Which IC50 did it give?
Its IC50 is 0.205 µM.

With `CC1(C)OCC(N)=N[C@](C)(c2cc(C3=CCOCC3)ccc2F)C1(F)F` [Example 5, (R)-5-[5-(3,6-Dihydro-2H-pyran-4-yl)-2-fluoro-phenyl]-6,6-difluoro-5,7,7-trimethyl-2,5,6,7-tetrahydro-[1,4]oxazepin-3-ylamine] as the compound, how does the IC50 read?
Its IC50 is 0.43 µM.

With `CC1(C)OCC(N)=N[C@](C)(c2cc(-c3cnn(-c4ccc(F)cc4)c3)ccc2F)C1(F)F` [Example 6, (R)-6,6-Difluoro-5-{2-fluoro-5-[1-(4-fluoro-phenyl)-1H-pyrazol-4-yl]-phenyl}-5,7,7-trimethyl-2,5,6,7-tetrahydro-[1,4]oxazepin-3-ylamine] as the compound, how does the IC50 read?
The IC50 was 0.52 µM.

How did the IC50 turn out when `Cn1nccc1-c1ccc(F)c([C@@]2(C)N=C(N)COC(C)(C)C2(F)F)c1` [Example 7, (R)-6,6-Difluoro-5-[2-fluoro-5-(2-methyl-2H-pyrazol-3-yl)-phenyl]-5,7,7-trimethyl-2,5,6,7-tetrahydro-[1,4]oxazepin-3-ylamine] was run?
The IC50 was 0.54 µM.

`CC1(C)OCC(N)=N[C@](C)(c2cc(C3CCOCC3)ccc2F)C1(F)F` [Example 8, (R)-6,6-Difluoro-5-[2-fluoro-5-(tetrahydro-pyran-4-yl)-phenyl]-5,7,7-trimethyl-2,5,6,7-tetrahydro-[1,4]oxazepin-3-ylamine] was tested. Which IC50 did it give?
The IC50 was 0.65 µM.

How did the IC50 turn out when `CC1(C)OCC(N)=N[C@](C)(c2cc(C#Cc3cccc(Cl)c3)ccc2F)C1(F)F` [Example 9, (R)-5-[5-(3-Chloro-phenylethynyl)-2-fluoro-phenyl]-6,6-difluoro-5,7,7-trimethyl-2,5,6,7-tetrahydro-[1,4]oxazepin-3-ylamine] was run?
Its IC50 is 1.34 µM.

`CC1(C)OCC(N)=N[C@](C)(c2cc(-c3cc(Cl)cc(Cl)c3)ccc2F)C1(F)F` [Example 10, (R)-5-(3′,5′-Dichloro-4-fluoro-biphenyl-3-yl)-6,6-difluoro-5,7,7-trimethyl-2,5,6,7-tetrahydro-[1,4]oxazepin-3-ylamine] was tested. Which IC50 did it give?
Its IC50 is 1.59 µM.

Which IC50 does the source give for `CC1(C)OCC(N)=N[C@](C)(c2cc(-c3ccc(C#N)cc3F)ccc2F)C1(F)F` [Example 13, 3′-((R)-3-amino-6,6-difluoro-5,7,7-trimethyl-2,5,6,7-tetrahydro-[1,4]oxazepin-5-yl)-2,4′-difluoro-biphenyl-4-carbonitrile] here?
Its IC50 is 0.092 µM.

With `CC1(C)OCC(N)=N[C@](C)(c2cc(-c3cccc(C#N)c3)ccc2F)C1(F)F` [Example 14, 3′-((R)-3-Amino-6,6-difluoro-5,7,7-trimethyl-2,5,6,7-tetrahydro-[1,4]oxazepin-5-yl)-4′-fluoro-biphenyl-3-carbonitrile] as the compound, how does the IC50 read?
Its IC50 is 0.186 µM.

For `Cc1nc(C#Cc2ccc(F)c([C@@]3(C)N=C(N)COC(C)(C)C3(F)F)c2)cs1` [Example 17, (R)-6,6-Difluoro-5-[2-fluoro-5-(2-methyl-thiazol-4-ylethynyl)-phenyl]-5,7,7-trimethyl-2,5,6,7-tetrahydro-[1,4]oxazepin-3-ylamine], which IC50 is on record?
Its IC50 is 0.8 µM.

For `CC1(C)OCC(N)=N[C@](C)(c2cc(-c3nc4ccc(Cl)cc4o3)ccc2F)C1(F)F` [Example 19, (R)-5-[5-(6-Chloro-benzooxazol-2-yl)-2-fluoro-phenyl]-6,6-difluoro-5,7,7-trimethyl-2,5,6,7-tetrahydro-[1,4]oxazepin-3-ylamine hydrochloride], which IC50 is on record?
The IC50 was 0.25 µM.

For `CC1(C)OCC(N)=N[C@](C)(c2cc(-c3cncnc3)c(F)cc2F)C1(F)F` [Example 25, (R)-6,6-Difluoro-5-(2,4-difluoro-5-pyrimidin-5-yl-phenyl)-5,7,7-trimethyl-2,5,6,7-tetrahydro-[1,4]oxazepin-3-ylamine], which IC50 is on record?
Its IC50 is 0.007 µM.

Which IC50 does the source give for `CC1(C)OCC(N)=N[C@](C)(c2cc(-c3cncc(Cl)c3)c(F)cc2F)C1(F)F` [Example 26, (R)-5-[5-(5-Chloro-pyridin-3-yl)-2,4-difluoro-phenyl]-6,6-difluoro-5,7,7-trimethyl-2,5,6,7-tetrahydro-[1,4]oxazepin-3-ylamine] here?
Its IC50 is 0.081 µM.

How did the IC50 turn out when `CC1(C)OCC(N)=N[C@](C)(c2cc(-c3ccc(C#N)cc3)c(F)cc2F)C1(F)F` [Example 27, 5′-((R)-3-amino-6,6-difluoro-5,7,7-trimethyl-2,5,6,7-tetrahydro-[1,4]oxazepin-5-yl)-2′,4′-difluoro-biphenyl-4-carbonitrile] was run?
The IC50 was 0.43 µM.

With `CC1(C)OCC(N)=N[C@](C)(c2cc(-c3cccc(C#N)c3)c(F)cc2F)C1(F)F` [Example 28, 5′-((R)-3-Amino-6,6-difluoro-5,7,7-trimethyl-2,5,6,7-tetrahydro-[1,4]oxazepin-5-yl)-2′,4′-difluoro-biphenyl-3-carbonitrile] as the compound, how does the IC50 read?
The IC50 was 0.79 µM.

Molecular target: T2, endogenous cellular BACE2 (Rattus norvegicus, UniProt Q6IE75)
T2 construct: endogenous in cells; host or cells: INS-TMEM27 (INS1e-derived rat cell line with inducible full-length hTMEM27)
T2 sequence (Q6IE75 63-514): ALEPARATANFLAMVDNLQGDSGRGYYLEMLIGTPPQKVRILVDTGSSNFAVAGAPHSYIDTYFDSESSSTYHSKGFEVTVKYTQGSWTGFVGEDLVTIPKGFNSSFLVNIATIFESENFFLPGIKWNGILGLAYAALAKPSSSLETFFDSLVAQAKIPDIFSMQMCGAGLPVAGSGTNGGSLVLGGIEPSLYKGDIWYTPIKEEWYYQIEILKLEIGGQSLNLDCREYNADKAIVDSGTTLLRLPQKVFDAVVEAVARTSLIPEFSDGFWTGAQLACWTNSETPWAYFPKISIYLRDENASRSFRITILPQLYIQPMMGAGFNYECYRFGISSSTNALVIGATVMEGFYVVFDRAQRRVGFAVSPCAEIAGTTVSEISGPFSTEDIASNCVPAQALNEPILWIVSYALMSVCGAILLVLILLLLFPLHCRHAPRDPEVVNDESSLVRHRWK
Assay: Assay for BACE inhibition by measuring cellular TMEM27 cleavage (INS-TMEM27 cells, ELISA)
Type: cell-based
Details: INS-TMEM27 (Ins1e rat) cells, shed human TMEM27 by ELISA
From the text: Assay for BACE Inhibition by Measuring Cellular TMEM27 Cleavage:
The assay uses the principle of inhibition of human TMEM27 cleavage by endogenous cellular BACE2 in the Ins1e rat cell line and shedding from the cell surface into the culture medium, followed by detection in an ELISA assay Inhibition of BACE2 prevents the cleavage and shedding in a dose-dependent manner
The stable cell line “INS-TMEM27” represents an INS1e-derived cell line with inducible expression (using the TetOn system) of full-length hTMEM27 in a doxycycline-dependent manner. The cells are cultured throughout the experiment in RPMI1640+Glutamax (Invitrogen) Penicillin/Streptomycin, 10% Fetal bovine serum, […], […], 100 micrograms/ml G418 and 100 microgram/ml hygromycin and are grown inadherent culture at 37° C. in a standard CO2 cell culture incubator.
INS-TMEM27 cells are seeded in 96-well plates. After 2 days in culture, BACE2 inhibitor is added in a range of concentrations as required by the assay and after a further two hours, doxycycline is added to a final concentration of 500 ng/ml. The cells are incubated for a further 46 hours and the supernatant harvested for detection of shed TMEM27.
An ELISA assay (using a pair of mouse anti-human-TMEM27 antibodies, raised against the extracellular domain of TMEM27) is used for detection of TMEM27 in the culture medium. An EC50 for BACE2 inhibition is calculated using the ELISA readout for each inhibitor concentration with standard curve-fitting software such as XLFit for the Excel spreadsheet program.

With `CC1(C)OCC(N)=N[C@](C)(c2cc(-c3cncc(Cl)c3)ccc2F)C1(F)F` [Example 4, (R)-5-[5-(5-Chloro-pyridin-3-yl)-2-fluoro-phenyl]-6,6-difluoro-5,7,7-trimethyl-2,5,6,7-tetrahydro-[1,4]oxazepin-3-ylamine] as the compound, how does the IC50 read?
Its IC50 is 0.592 µM.

`CC1(C)OCC(N)=N[C@](C)(c2cc(-c3cc(Cl)cc(Cl)c3)ccc2F)C1(F)F` [Example 10, (R)-5-(3′,5′-Dichloro-4-fluoro-biphenyl-3-yl)-6,6-difluoro-5,7,7-trimethyl-2,5,6,7-tetrahydro-[1,4]oxazepin-3-ylamine] was tested. Which IC50 did it give?
The IC50 was 1.33 µM.

For `CC1(C)OCC(N)=N[C@](C)(c2cc(-c3cccc(C#N)c3)ccc2F)C1(F)F` [Example 14, 3′-((R)-3-Amino-6,6-difluoro-5,7,7-trimethyl-2,5,6,7-tetrahydro-[1,4]oxazepin-5-yl)-4′-fluoro-biphenyl-3-carbonitrile], which IC50 is on record?
The IC50 was 0.279 µM.
